Assay in all cases: greenhouse pre-emergence herbicidal test
What all share (format): in vivo

For one assay, the system named is Echinochloa crus-galli. The following applies: scale 0 to 100. Put shortly:
(§1)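 Spray application right after sowing of active ingredients suspended or emulsified in water, onto loamy sand with about 3.0% humus; pots covered with plastic hoods until rooted, kept at 10-25° C. or 20-35° C. depending on species. Damage scored 0-100 (100 = no emergence or complete aerial destruction) after 2 to 4 weeks.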

Another assay relates to Digitaria sanguinalis. The following applies: scale 0 to 100. Put shortly: as §1
A further assay deals with Abutilon theophrasti. The following applies: scale 0 to 100. The method in brief:
as §1

The next assay relates to Amaranthus retroflexus. Particulars: scale 0 to 100. The method in brief: as §1
Another assay relates to Lolium multiflorum. The following applies: pre-emergence, 62,5 g/ha, scale 0 to 100. The method in brief:
as §1

The subject of a further assay is Alopecurus myosuroides. Particulars: pre-emergence, 62,5 g/ha, scale 0 to 100. Put shortly:
as §1

The test system of the next assay is Apera spica-venti. Particulars: 31 g/ha, scale 0 to 100. Put shortly: as §1
For a further assay, the system named is Setaria faberi. Particulars: scale 0 to 100. The method in brief:
as §1

Each structure is given as a SMILES string.

As for `COc1c(Cl)ccc(F)c1Nc1nc(N)nc(C(C)(C)F)n1` [Example 2], the herbicidal activity in the assay on Echinochloa crus-galli (pre-emergence, 62,5 g/ha) amounted to 100%; with Digitaria sanguinalis (pre-emergence, 62,5 g/ha), 100%; in the assay on Abutilon theophrasti (pre-emergence, 62,5 g/ha) it was 100%.

`COc1c(Cl)c(F)c(F)c(F)c1Nc1nc(N)nc(C(C)(C)OC)n1` [Example 174]: the herbicidal activity in the assay with Amaranthus retroflexus (pre-emergence, 62,5 g/ha) is 100%; in the assay on Lolium multiflorum, 100%; with Alopecurus myosuroides, 98%.

In the case of `COc1c(Cl)cc(Cl)c(F)c1Nc1nc(N)nc(C2(F)CCCC2)n1` [Example 60], the herbicidal activity in the assay on Apera spica-venti came out at 95%; in the assay with Setaria faberi (pre-emergence, 31 g/ha) it was 98%; with Amaranthus retroflexus (pre-emergence, 31 g/ha) it was 100%.

For the compound `COc1c(Br)ccc(F)c1Nc1nc(N)nc(C(C)(C)F)n1` [Example 4, N4-(3-bromo-6-fluoro-2-methoxy-phenyl)-6-(1-fluoro-1-methyl-ethyl)-1,3,5-triazine-2,4-diamine], the herbicidal activity in the assay on Echinochloa crus-galli (pre-emergence, 62,5 g/ha) came out at 100%; in the assay with Digitaria sanguinalis (pre-emergence, 62,5 g/ha), 100%; with Abutilon theophrasti (pre-emergence, 62,5 g/ha), 100%.

As to `COc1c(Cl)cc(C)c(F)c1Nc1nc(N)nc(C(C)(C)F)n1` [Example 3], the herbicidal activity in the assay on Echinochloa crus-galli (pre-emergence, 62,5 g/ha) is given as 100%; with Digitaria sanguinalis (pre-emergence, 62,5 g/ha) it was 100%; in the assay on Abutilon theophrasti (pre-emergence, 62,5 g/ha), 100%.

As for `CC#CC(C)Oc1c(F)cc(F)c(F)c1Nc1nc(N)nc(C2(F)CCCC2)n1` (stereo not drawn) [Example 104], the herbicidal activity in the assay with Echinochloa crus-galli (pre-emergence, 62,5 g/ha) worked out at 100%; in the assay with Lolium multiflorum, 100%; in the assay on Abutilon theophrasti (pre-emergence, 62,5 g/ha), 100%.

For the compound `COc1c(Cl)c(F)c(F)c(F)c1Nc1nc(N)nc(C(C)(C)F)n1` [Example 148], the herbicidal activity in the assay on Amaranthus retroflexus (pre-emergence, 62,5 g/ha) turned out to be 100%; in the assay on Lolium multiflorum, 100%; in the assay with Alopecurus myosuroides it was 100%.

Take `COc1c(Br)ccc(F)c1Nc1nc(N)nc(C2(F)CCCCC2)n1` [Example 5]: the herbicidal activity in the assay on Echinochloa crus-galli (pre-emergence, 250 g/ha) was determined as 85%; in the assay with Digitaria sanguinalis (pre-emergence, 250 g/ha) it was 100%; with Abutilon theophrasti (pre-emergence, 250 g/ha) it was 90%.

As to `CC(C)(F)c1nc(N)nc(Nc2c(F)c(F)cc(Cl)c2OC/C=C/Br)n1` [Example 125], the herbicidal activity with Setaria faberi (pre-emergence, 62,5 g/ha) turned out to be 100%; in the assay with Amaranthus retroflexus (pre-emergence, 62,5 g/ha), 100%; in the assay on Lolium multiflorum, 100%.

For `CC(C)(F)c1nc(N)nc(Nc2c(F)c(F)cc(F)c2OC/C=C/Br)n1` [Example 127], the herbicidal activity with Setaria faberi (pre-emergence, 62,5 g/ha) is 100%; in the assay with Amaranthus retroflexus (pre-emergence, 62,5 g/ha), 100%; in the assay with Lolium multiflorum, 100%.

The values are drawn from patent US20240101521A1, “DIAMINOTRIAZINE COMPOUNDS” (BASF SE, priority 2021, published 2024).
